Values quoted from earlier work in US20250339366A1, “AN ORODISPERSIBLE TABLET OF RIVAROXABAN” (INTAS PHARMACEUTICALS LTD., priority 2022, published 2025).

Solubility in water: practically insoluble in water
SMILES: O=C(NC[C@H]1CN(c2ccc(N3CCOCC3=O)cc2)C(=O)O1)c1ccc(Cl)s1 [Rivaroxaban, 5-Chloro-N-({(5S)-2-oxo-3-[4-(3-oxo-4-morpholinyl)phenyl]-1,3-oxzolidin-5-yl}methyl)-2-thiophene-carboxamide]
